Test results published in US20150315218A1, “SALTS OF PRODRUGS OF PIPERAZINE AND SUBSTITUTED PIPERIDINE ANTIVIRAL AGENTS” (Bristol-Myers Squibb Company, priority 2004, published 2015).
Counter-ions that a name gives are not always drawn.

Tests used:
[1] = IV and PO pharmacokinetic studies of prodrug salts (Iab, Ibb, Icb) in the monkey, with historical parent data; assay type: in vivo, cynomolgus monkeys; conditions: male, cynomolgus monkey
Method: The IV and PO studies of Iab were conducted in a crossover fashion in three male cynomolgus monkeys (11±1.2 kg, Charles River Biomedical Research Foundation, Houston, Tex.). There was a two-week washout period between the IV and PO studies.
In the IV study, Iab was infused via the femoral vein at 1.3 mg/kg (free acid, or 1.1 mg/kg of IVa equivalent) over 5 min at a constant rate of 0.1 mL/kg/min. The concentration of the dosing solution was 2.6 mg/mL, and the dosing volume was 0.5 mL/kg. Serial blood samples were collected from the femoral artery before dosing and at 5, 10, 15, 30, 45 min, 1, 2, 4, 6, 8 and 24 hr after dosing.
(§1) In the PO study, the monkeys were fasted overnight before dosing. Iab was administered by oral gavage at 7.1 mg/kg (free acid, or 5.6 mg/kg of IVa equivalent). The concentration of the dosing solution was 14.2 mg/mL, and the dosing volume was 0.5 mL/kg. Serial blood samples were collected before dosing and at 15, 30, 45 min, 1, 2, 4, 6, 8 and 24 hr after dosing.
The IV and PO studies of Ibb were conducted in a crossover fashion in three male cynomolgus monkeys (9.9±2.4 kg, Charles River Biomedical Research Foundation, Houston, Tex.). There was a two-week washout period between the IV and PO studies.
The concentration of the dosing solution was 2.7 mg/mL, and the dosing volume was 0.5 mL/kg. Serial blood samples were collected from the femoral artery before dosing and at 5, 10, 15, 30, 45 min, 1, 2, 4, 6, 8 and 24 hr after dosing.
In the PO study, the monkeys were fasted overnight before dosing. […] The concentration of the dosing solution was 5.8 mg/mL, and the dosing volume was 1 mL/kg. Serial blood samples were collected before dosing and at 15, 30, 45 min, 1, 2, 4, 6, 8 and 24 hr after dosing.
The IV and PO studies of Icb were conducted in a crossover fashion in three male cynomolgus monkeys (10±1.6 kg, Charles River Biomedical Research Foundation, Houston, Tex.). There was a two-week washout period between the IV and PO studies.
The concentration of the dosing solution was 2.8 mg/mL, and the dosing volume was 0.5 mL/kg. Serial blood samples were collected from the femoral artery before dosing and at 5, 10, 15, 30, 45 min, 1, 2, 4, 6, 8 and 24 hr after dosing.
In the PO study, the monkeys were fasted overnight before dosing. […] The concentration of the dosing solution was 9.8 mg/mL, and the dosing volume was 0.5 mL/kg. Serial blood samples were collected before dosing and at 15, 30, 45 min, 1, 2, 4, 6, 8 and 24 hr after dosing.

[2] = IV and PO pharmacokinetic studies of prodrug salts (Iab, Ibb, Icb) in the dog, with historical parent data; assay type: in vivo, beagle dogs; conditions: male, beagle
Method: The IV and PO studies of Iab were conducted in a crossover fashion in three male beagle dogs (11±1.1 kg, Marshall Farms USA Inc., North Rose, N.Y.). There was a two-week washout period between the IV and PO studies.
In the IV study, Iab was infused via the cephalic vein at 1.2 mg/kg (free acid, or 0.95 mg/kg of IVa equivalent) over 5 min at a constant rate of 0.1 mL/kg/min. The concentration of the dosing solution was 2.4 mg/mL, and the dosing volume was 0.5 mL/kg. Serial blood samples were collected from the femoral artery before dosing and at 5, 10, 15, 30, 45 min, 1, 2, 4, 6, 8 and 24 hr after dosing.
as §1, with “dogs” for “monkeys”, “6.6” for “7.1”, “5.2” for “5.6”, “13.2” for “14.2”
The IV and PO studies of Ibb were conducted in male beagle dogs (10±0.78 kg, Marshall Farms USA Inc., North Rose, N.Y.). Three dogs were used in each study. Of the three dogs, two same dogs were used for both IV and PO studies. There was a two-week washout period between the IV and PO studies.
The concentration of the dosing solution was 2.6 mg/mL, and the dosing volume was 0.5 mL/kg. Serial blood samples were collected from the femoral artery before dosing and at 5, 10, 15, 30, 45 min, 1, 2, 4, 6, 8 and 24 hr after dosing.
In the PO study, the dogs were fasted overnight before dosing. […] The concentration of the dosing solution was 7.0 mg/mL, and the dosing volume was 1 mL/kg. Serial blood samples were collected before dosing and at 15, 30, 45 min, 1, 2, 4, 6, 8 and 24 hr after dosing.
The IV and PO studies of Icb were conducted in a crossover fashion in three male beagle dogs (12±2.8 kg, Marshall Farms USA Inc., North Rose, N.Y.). There was a two-week washout period between the IV and PO studies.
In the IV study, Icb was infused via the cephalic vein at 1.3 mg/kg (free acid, or 1.0 mg/kg of IVe equivalent) over 5 min at a constant rate of 0.1 mL/kg/min. The concentration of the dosing solution was 2.6 mg/mL, and the dosing volume was 0.5 mL/kg. Serial blood samples were collected from the femoral artery before dosing and at 5, 10, 15, 30, 45 min, 1, 2, 4, 6, 8 and 24 hr after dosing.
In the PO study, the dogs were fasted overnight before dosing. […] The concentration of the dosing solution was 12 mg/mL, and the dosing volume was 0.5 mL/kg. Serial blood samples were collected before dosing and at 15, 30, 45 min, 1, 2, 4, 6, 8 and 24 hr after dosing.

| SMILES | T1/2 ([1]; in vivo, iv, […]) | AUC ([2]; in vivo, iv, 1.28 mg/kg) | MRT ([2]; in vivo, iv, 1.28 mg/kg) | Vd ([2]; in vivo, iv, 1.28 mg/kg) | clearance ([2]; in vivo, iv, 1.28 mg/kg) | half-life ([2]; in vivo, iv, 1.28 mg/kg) | concentration at 15 min ([1]; plasma, po, monkey, LLQ = 5 nM, read-out: prodrug detected in plasma after oral administration) | AUC ([1]; plasma, monkey, after IV prodrug (~1.1 mg/kg parent equivalent), analyte = label, read-out: AUCtot (μM · hr), IV) | half-life ([1]; plasma, monkey, after IV prodrug, analyte = label, read-out: t1/2 (hr), IV (converted)) | clearance ([1]; plasma, monkey, prodrug after IV administration, read-out: CLtot (mL/min/kg), IV) | Vd ([1]; plasma, monkey, prodrug after IV administration, read-out: Vdss (L/kg), IV) | AUC ([2]; plasma, after IV prodrug (~1 mg/kg parent equivalent), analyte = label, read-out: AUCtot (μM · hr), IV) | half-life ([2]; plasma, after IV prodrug, analyte = label, read-out: t1/2 (hr), IV (converted)) | clearance ([2]; plasma, prodrug after IV administration, read-out: CLtot (mL/min/kg), IV) | Vd ([2]; plasma, prodrug after IV administration, read-out: Vdss (L/kg), IV) |
| --- | --- | --- | --- | --- | --- | --- | --- | --- | --- | --- | --- | --- | --- | --- | --- |
| COc1cnc(-n2cnc(C)n2)c2c1c(C(=O)C(=O)N1CCN(C(=O)c3ccccc3)CC1)cn2COP(=O)(O)O [Icb, [3-[(4-benzoylpiperazin-1-yl)(oxo)acetyl]-4-methoxy-7-(3-methyl-1H-1,2,4-triazol-1-yl)-1H-pyrrolo[2,3-c]pyridin-1-yl]methyl dihydrogen phosphate, 2-amino-2-(hydroxymethyl)propane-1,3-diol salt (1:1)] | 5.34 ± 1.86 min | 0.61 ± 0.2 µM·h | 8.4 ± 1.26 min | 0.5 ± 0.088 L/kg | 64 ± 18 mL/min/kg | 0.25 ± 0.1 h |  |  |  |  |  |  |  |  |  |
| COc1cnc(OC)c2c1c(C(=O)C(=O)N1CCN(C(=O)c3ccccc3)CC1)cn2COP(=O)(O)O [Iab, {3-[(4-benzoylpiperazin-1-yl)(oxo)acetyl]-4,7-dimethoxy-1H-pyrrolo[2,3-c]pyridin-1-yl}methyl dihydrogen phosphate, L-lysine salt (1:1)] |  |  |  |  |  |  | 18 nM | 9.5 ± 0.38 µM·h | 1 h | 4.4 mL/min/kg | 0.048 L/kg | 0.56 ± 0.12 µM·h | 0.15 h | 70 mL/min/kg | 0.3 L/kg |
